{
  "source": "paper PMC10779433",
  "about": "“Bidirectional Allosteric Coupling between PIP2 Binding and the Pore of the Oncochannel TRPV6” (International Journal of Molecular Sciences, 2024)",
  "key": {"[1]": {"test_system": "TRPV6 R470A W583F", "experiment": "Whole-cell patch clamp, TRPV6 R470A W583F", "type": "cell-based, human", "details": "HEK293 cells; 10 μM pal-PIP2 peptide; Figure 6A; compared with W583F", "text": "(§1) N-terminally TagRFP-labeled human TRPV6 (725 aa) was kindly provided by R. Bhardwaj and M. Hediger (University of Bern, Bern, Switzerland). This variant is translated from the first ATG codon and thus deviates from the non-ATG-initiated protein which is expressed in vivo (accession number NM_018646.6) by lacking 40 amino acids of the very N-terminus. For N-terminal labeling with EYFP, TRPV6 was cloned into pEYFP-C1 (Clontech) via EcoRI and SacII restriction sites. Mutations (F468A, R470A, F472A, K484A/Q, G488R, R492A/Q, I575A, G579A, D580A/K, H582A, W583A/F, H587A, R589A, W593A, R632A/Q, R470A, W583F) were introduced using the QuickChange XL site-directed mutagenesis kit (Stratagene, San Diego, CA, USA) and Pfu DNA Polymerase (Promega, Madison, WI, USA). pTagRFP-hTRPV6 I575A was kindly provided by the lab of M. Hediger (University of Bern, Bern, Switzerland). Forward and reverse primers for site-directed mutagenesis were synthesized by Eurofins genomics GmbH (Wien, Vienna, Austria). Intactness of the constructs in terms of sequence was confirmed by sequencing (Microsynth Austria GmbH, Wien, Vienna, Austria; Eurofins genomics GmbH, Wien, Vienna, Austria). […]\n(§2) Electrophysiological experiments were performed at 20 °C to 24 °C in whole-cell recording configurations of the patch clamp technique. […] The liquid junction potential was determined as 12 mV; the voltages were not adjusted. […]"}, "[2]": {"test_system": "TRPV6 K484A", "experiment": "Whole-cell patch clamp, TRPV6 K484A", "type": "cell-based, human", "details": "HEK293 cells; 10 μM pal-PIP2 peptide; p < 0.05; Figure 4D", "text": "as §1, §2"}, "[3]": {"test_system": "TRPV6 R470A", "experiment": "Whole-cell patch clamp, TRPV6 R470A", "type": "cell-based, human", "details": "HEK293 cells; 10 μM pal-PIP2 peptide; p < 0.05; Figure 4D", "text": "as §1, §2"}, "[4]": {"test_system": "TRPV6 R492Q", "experiment": "NFAT screen, TRPV6 R492Q", "type": "cell-based, human", "details": "HEK293 cells; 5 μM cis-22a, 2 h, vs DMSO", "procedure": "(§3) N-terminally TagRFP-labeled human TRPV6 (725 aa) was kindly provided by R. Bhardwaj and M. Hediger (University of Bern, Bern, Switzerland). This variant is translated from the first ATG codon and thus deviates from the non-ATG-initiated protein which is expressed in vivo (accession number NM_018646.6) by lacking 40 amino acids of the very N-terminus. For N-terminal labeling with EYFP, TRPV6 was cloned into pEYFP-C1 (Clontech) via EcoRI and SacII restriction sites. […]\n(§4) After incubation, cover slips were carefully rinsed with phenol red-free DMEM supplemented with the compound and dosage corresponding to the previous incubation, which was then also present during imaging. […] Subcellular NFAT localization of TRPV6 expressing cells was again monitored on an Axiovert 135 inverted microscope (Zeiss, Oberkochen, Germany), as described in more detail before. […] Images were analyzed using Matlab2018a, differentiating between three cell populations based on the ratio of CFP emission intensity originating from the nucleus and the cytosol, similar to Schober et al. (2019)."}, "[5]": {"test_system": "TRPV6 D580K", "experiment": "NFAT screen, TRPV6 D580K", "type": "cell-based, human", "details": "HEK293 cells; 5 μM cis-22a, 2 h, vs DMSO", "procedure": "as §3, §4"}, "[6]": {"test_system": "TRPV6 K484A", "experiment": "NFAT screen, TRPV6 K484A", "type": "cell-based, human", "details": "HEK293 cells; 5 μM cis-22a, 2 h, vs DMSO", "procedure": "as §3, §4"}, "[7]": {"test_system": "TRPV6 R589A", "experiment": "NFAT screen, TRPV6 R589A", "type": "cell-based, human", "details": "HEK293 cells; 5 μM cis-22a, 2 h; same for solvent control", "procedure": "as §3, §4"}, "[8]": {"test_system": "TRPV6 R470A W583F", "experiment": "NFAT screen, TRPV6 R470A W583F", "type": "cell-based, human", "details": "HEK293 cells; 5 μM cis-22a, 2 h", "procedure": "as §3, §4"}, "[9]": {"test_system": "TRPV6 G488R", "experiment": "NFAT screen, TRPV6 G488R", "type": "cell-based, human", "details": "HEK293 cells; 5 μM cis-22a, 2 h, vs DMSO", "procedure": "as §3, §4"}, "[10]": {"test_system": "TRPV6 W583F", "parameters": "method as in PMID 33246965", "details": "ref [47], cited from earlier work"}},
  "note": "Residues, ends and D or L forms follow the SMILES beside them. *: point of attachment. Palmitoyl = CCCCCCCCCCCCCCCC(=O)*",
  "data": [
    {"smiles": "CCCCCCCCCCCCCCCC(=O)N[C@@H](Cc1c[nH]cn1)C(=O)N[C@@H](CCCNC(=N)N)C(=O)N[C@@H](CCC(N)=O)C(=O)N[C@@H](CCCCN)C(=O)N[C@@H](Cc1c[nH]cn1)C(=O)N[C@@H](Cc1ccccc1)C(=O)N[C@@H](CCC(=O)O)C(=O)N[C@@H](CCCCN)C(=O)N[C@@H](CCCNC(=N)N)C(=O)N[C@@H](CCCNC(=N)N)C(N)=O", "note": "[pal-PIP2 peptide] (Palmitoyl-HRQKHFEKRR-NH2)", "values": [
      {"measurement": "resistance to inhibition by pal-PIP2 peptide", "setting": "[1]", "result": "regained significant resistance to inhibition"},
      {"measurement": "sensitivity to peptide-based PIP2 sequestration vs WT", "setting": "[2]", "result": "significantly reduced sensitivity"},
      {"measurement": "sensitivity to peptide-based PIP2 sequestration vs WT", "setting": "[3]", "result": "significantly reduced sensitivity"}
    ]},
    {"smiles": "Cc1cccc(C2CCC(N3CCN(c4cccnc4)CC3)CC2)c1.O=C(O)C(F)(F)F", "note": "(stereo not drawn) [cis-22a]", "values": [
      {"measurement": "reduction of nuclear NFAT localization", "setting": "[4]", "result": "failed to significantly reduce NFAT nuclear localization"},
      {"measurement": "change of nuclear NFAT localization", "setting": "[5]", "result": "not significantly changed"},
      {"measurement": "reduction of nuclear NFAT localization", "setting": "[6]", "result": "failed to significantly reduce NFAT nuclear localization"},
      {"measurement": "nuclear targeting of NFAT", "setting": "[7]", "result": "almost absent"},
      {"measurement": "NFAT localization patterns", "setting": "[8]", "result": "unable to change localization patterns"},
      {"measurement": "reduction of nuclear NFAT localization", "setting": "[9]", "result": "impeded cis-22a-based reductions in nuclear NFAT localization"},
      {"measurement": "response to cis-22a vs TRPV6 WT", "setting": "[10]; HEK293 cells, 0.1 μM and 10 μM cis-22a, Figure 5B", "result": "significantly reduced response"},
      {"measurement": "IC50", "setting": "[10]; TRPV6 W583F", "result": "~6.19", "unit": "µM"}
    ]}
  ]
}
